Laboratory results taken from ChEMBL document CHEMBL3045892, “Synthesis and evaluation of in vitro antimicrobial activity of novel 2,3-disubstituted-4-thiazolidinones from fatty acid hydrazides” (2013).
≈ marks a conversion by molar mass, not a printed value.

What was measured:
Format in all cases: functional
[1] = test system: Trichophyton mentagrophytes; assay: Antifungal activity against Trichophyton mentagrophytes by disk diffusion method
[2] = test system: Talaromyces marneffei; assay: Antifungal activity against Talaromyces marneffei by disk diffusion method
[3] = test system: Aspergillus fumigatus; assay: Antifungal activity against Aspergillus fumigatus by disk diffusion method
[4] = test system: Candida albicans; assay: Antifungal activity against Candida albicans by disk diffusion method
[5] = test system: Escherichia coli; assay: Antibacterial activity against Escherichia coli ATCC 25922 incubated for 24 hr followed by subculturing measured after 18 to 24 hr
[6] = test system: Escherichia coli; assay: Antibacterial activity against Escherichia coli ATCC 25922 after 24 hr by broth dilution method; details: ATCC 25922, 24 h
[7] = test system: Klebsiella pneumoniae; assay: Antibacterial activity against Klebsiella pneumoniae clinical isolate incubated for 24 hr followed by subculturing measured after 18 to 24 hr
[8] = test system: Klebsiella pneumoniae; assay: Antibacterial activity against Klebsiella pneumoniae clinical isolate after 24 hr by broth dilution method
[9] = test system: Pseudomonas aeruginosa; assay: Antibacterial activity against Pseudomonas aeruginosa ATCC 27853 incubated for 24 hr followed by subculturing measured after 18 to 24 hr
[10] = test system: Pseudomonas aeruginosa; assay: Antibacterial activity against Pseudomonas aeruginosa ATCC 27853 after 24 hr by broth dilution method; details: ATCC 27853, 24 h
[11] = test system: Streptococcus pyogenes; assay: Antibacterial activity against Streptococcus pyogenes incubated for 24 hr followed by subculturing measured after 18 to 24 hr
[12] = test system: Streptococcus pyogenes; assay: Antibacterial activity against Streptococcus pyogenes after 24 hr by broth dilution method
[13] = test system: Talaromyces marneffei; assay: Antifungal activity against Talaromyces marneffei after 48 hr
[14] = test system: Escherichia coli; assay: Antibacterial activity against Escherichia coli ATCC 25922 after 24 hr by disk diffusion method
[15] = test system: Klebsiella pneumoniae; assay: Antibacterial activity against Klebsiella pneumoniae clinical isolate after 24 hr by disk diffusion method
[16] = test system: Pseudomonas aeruginosa; assay: Antibacterial activity against Pseudomonas aeruginosa ATCC 27853 after 24 hr by disk diffusion method
[17] = test system: Streptococcus pyogenes; assay: Antibacterial activity against Streptococcus pyogenes after 24 hr by disk diffusion method
[18] = test system: Talaromyces marneffei; assay: Antifungal activity against Talaromyces marneffei incubated for 48 hr followed by subculturing measured after 48 hr
[19] = test system: Trichophyton mentagrophytes; assay: Antifungal activity against Trichophyton mentagrophytes after 48 hr
[20] = test system: Trichophyton mentagrophytes; assay: Antifungal activity against Trichophyton mentagrophytes incubated for 48 hr followed by subculturing measured after 48 hr
[21] = test system: Aspergillus fumigatus; assay: Antifungal activity against Aspergillus fumigatus incubated for 48 hr followed by subculturing measured after 48 hr
[22] = test system: Candida albicans; assay: Antifungal activity against Candida albicans incubated for 48 hr followed by subculturing measured after 48 hr
[23] = test system: Aspergillus fumigatus; assay: Antifungal activity against Aspergillus fumigatus after 48 hr
[24] = test system: Candida albicans; assay: Antifungal activity against Candida albicans after 48 hr
[25] = test system: Staphylococcus aureus; assay: Antibacterial activity against methicillin-resistant Staphylococcus aureus incubated for 24 hr followed by subculturing measured after 18 to 24 hr
[26] = test system: Staphylococcus aureus; assay: Antibacterial activity against methicillin-resistant Staphylococcus aureus after 24 hr by broth dilution method
[27] = test system: Escherichia coli; assay: Antibacterial activity against Escherichia coli ATCC 25922 at 30 uig/disk after 24 hr by disk diffusion method
[28] = test system: Klebsiella pneumoniae; assay: Antibacterial activity against Klebsiella pneumoniae clinical isolate at 30 ug/disk after 24 hr by disk diffusion method; details: read-out: DIZ
[29] = test system: Pseudomonas aeruginosa; assay: Antibacterial activity against Pseudomonas aeruginosa ATCC 27853 at 30 ug/disk after 24 hr by disk diffusion method; details: ATCC 27853, 24 h, read-out: DIZ
[30] = test system: Staphylococcus aureus; assay: Antibacterial activity against methicillin-resistant Staphylococcus aureus at 30 ug/disk after 24 hr by disk diffusion method; details: read-out: DIZ
[31] = test system: Streptococcus pyogenes; assay: Antibacterial activity against Streptococcus pyogenes at 30 ug/disk after 24 hr by disk diffusion method; details: read-out: DIZ

SMILES	MIC [6] [µg/mL]	MIC [8] [µg/mL]	MIC [10] [µg/mL]	MIC [12] [µg/mL]	MIC [13] [µg/mL]	MIC [19] [µg/mL]	MIC [23] [µg/mL]	MIC [24] [µg/mL]	diameter of the inhibition zone (DIZ) [1] [mm]	diameter of the inhibition zone (DIZ) [2] [mm]	diameter of the inhibition zone (DIZ) [3] [mm]	diameter of the inhibition zone (DIZ) [4] [mm]	MBC [5] [µg/mL]	MBC [7] [µg/mL]	MBC [9] [µg/mL]	MBC [11] [µg/mL]	MFC [18] [µg/mL]	MFC [20] [µg/mL]	MFC [21] [µg/mL]	MFC [22] [µg/mL]	other results
CCCCC/C=C\CC[C@H](O)CCCCCCCC(=O)NN1C(=O)CSC1c1ccc(Cl)cc1 (some centres not stated)	50 (≈ 98.2 µM)	50 (≈ 98.2 µM)	50 (≈ 98.2 µM)	25 (≈ 49.1 µM)	25 (≈ 49.1 µM)	25 (≈ 49.1 µM)	25 (≈ 49.1 µM)	25 (≈ 49.1 µM)	14.8	13.3	18.7	21.2	100 (≈ 196 µM)	> 100	100 (≈ 196 µM)	100 (≈ 196 µM)	100 (≈ 196 µM)	100 (≈ 196 µM)	100 (≈ 196 µM)	50 (≈ 98.2 µM)	diameter of the inhibition zone (DIZ) [14]: 14.3 mm; diameter of the inhibition zone (DIZ) [15]: 13.9 mm; diameter of the inhibition zone (DIZ) [16]: 13.9 mm; diameter of the inhibition zone (DIZ) [17]: 15.5 mm
CCCCCC[C@@H](O)C/C=C\CCCCCCCC(=O)NN1C(=O)CSC1c1ccc(Cl)cc1 (some centres not stated)	50 (≈ 98.2 µM)	25 (≈ 49.1 µM)	50 (≈ 98.2 µM)	50 (≈ 98.2 µM)	25 (≈ 49.1 µM)	25 (≈ 49.1 µM)	25 (≈ 49.1 µM)	25 (≈ 49.1 µM)	18.2	14.4	20.6	23.7	> 100	100 (≈ 196 µM)	100 (≈ 196 µM)	100 (≈ 196 µM)	100 (≈ 196 µM)	50 (≈ 98.2 µM)	50 (≈ 98.2 µM)	50 (≈ 98.2 µM)	diameter of the inhibition zone (DIZ) [14]: 14.5 mm; diameter of the inhibition zone (DIZ) [15]: 14.5 mm; diameter of the inhibition zone (DIZ) [16]: 14.1 mm; diameter of the inhibition zone (DIZ) [17]: 17.1 mm
CCCCCCCC/C=C\CCCCCCCC(=O)NN1C(=O)CSC1c1ccc(Cl)cc1 (configuration not stated)	25 (≈ 50.7 µM)	25 (≈ 50.7 µM)	50 (≈ 101 µM)	25 (≈ 50.7 µM)	25 (≈ 50.7 µM)	25 (≈ 50.7 µM)	12.5 (≈ 25.3 µM)	12.5 (≈ 25.3 µM)	17.6	14.1	21.4	24.2	100 (≈ 203 µM)	50 (≈ 101 µM)	100 (≈ 203 µM)	100 (≈ 203 µM)	50 (≈ 101 µM)	50 (≈ 101 µM)	50 (≈ 101 µM)	50 (≈ 101 µM)	diameter of the inhibition zone (DIZ) [14]: 17.6 mm; diameter of the inhibition zone (DIZ) [15]: 17.1 mm; diameter of the inhibition zone (DIZ) [16]: 19.9 mm; diameter of the inhibition zone (DIZ) [17]: 18.1 mm
O=C(N[C@H](CO)[C@H](O)c1ccc([N+](=O)[O-])cc1)C(Cl)Cl [CHLORAMPHENICOL]	6.25 (≈ 19.3 µM)	6.25 (≈ 19.3 µM)	12.5 (≈ 38.7 µM)	12.5 (≈ 38.7 µM)	–	–	–	–	–	–	–	–	12.5 (≈ 38.7 µM)	25 (≈ 77.4 µM)	25 (≈ 77.4 µM)	12.5 (≈ 38.7 µM)	–	–	–	–	MBC [25]: 12.5 µg/mL (≈ 38.7 µM); MIC [26]: 6.25 µg/mL (≈ 19.3 µM); diameter of the inhibition zone (DIZ) [27]: 27 mm; zone of inhibition at 30 µg/disc [28]: 19 mm; zone of inhibition at 30 µg/disc [29]: 32 mm; zone of inhibition at 30 µg/disc [30]: 22 mm; zone of inhibition at 30 µg/disc [31]: 23 mm
COC1=CC(=O)C[C@@H](C)[C@]12Oc1c(Cl)c(OC)cc(OC)c1C2=O [GRISEOFULVIN]	–	–	–	–	12.5 (≈ 35.4 µM)	6.25 (≈ 17.7 µM)	12.5 (≈ 35.4 µM)	6.25 (≈ 17.7 µM)	24	20	27	30	–	–	–	–	25 (≈ 70.9 µM)	25 (≈ 70.9 µM)	12.5 (≈ 35.4 µM)	25 (≈ 70.9 µM)	–

Now from value to compound, other results behind:

MIC [6] [µg/mL]	MIC [8] [µg/mL]	MIC [10] [µg/mL]	MIC [12] [µg/mL]	MIC [13] [µg/mL]	MIC [19] [µg/mL]	MIC [23] [µg/mL]	MIC [24] [µg/mL]	SMILES	diameter of the inhibition zone (DIZ) [1] [mm]	diameter of the inhibition zone (DIZ) [2] [mm]	diameter of the inhibition zone (DIZ) [3] [mm]	diameter of the inhibition zone (DIZ) [4] [mm]	MBC [5] [µg/mL]	MBC [7] [µg/mL]	MBC [9] [µg/mL]	MBC [11] [µg/mL]	MFC [18] [µg/mL]	MFC [20] [µg/mL]	MFC [21] [µg/mL]	MFC [22] [µg/mL]	other results
12.5 (≈ 26.8 µM)	12.5 (≈ 26.8 µM)	12.5 (≈ 26.8 µM)	12.5 (≈ 26.8 µM)	12.5 (≈ 26.8 µM)	6.25 (≈ 13.4 µM)	6.25 (≈ 13.4 µM)	6.25 (≈ 13.4 µM)	CCCCCCCCCCCCCCCC(=O)NN1C(=O)CSC1c1ccc(Cl)cc1 (configuration not stated)	19.5	15.2	22.6	27.3	25 (≈ 53.5 µM)	50 (≈ 107 µM)	25 (≈ 53.5 µM)	25 (≈ 53.5 µM)	25 (≈ 53.5 µM)	25 (≈ 53.5 µM)	25 (≈ 53.5 µM)	12.5 (≈ 26.8 µM)	diameter of the inhibition zone (DIZ) [14]: 23.3 mm; diameter of the inhibition zone (DIZ) [15]: 21.4 mm; diameter of the inhibition zone (DIZ) [16]: 27.2 mm; diameter of the inhibition zone (DIZ) [17]: 20.4 mm
25 (≈ 63.3 µM)	25 (≈ 63.3 µM)	12.5 (≈ 31.6 µM)	25 (≈ 63.3 µM)	12.5 (≈ 31.6 µM)	12.5 (≈ 31.6 µM)	12.6 (≈ 31.8 µM)	12.5 (≈ 31.6 µM)	C=CCCCCCCCCC(=O)NN1C(=O)CSC1c1ccc(Cl)cc1 (configuration not stated)	19.2	14.6	22.2	27.1	50 (≈ 127 µM)	50 (≈ 127 µM)	25 (≈ 63.3 µM)	50 (≈ 127 µM)	25 (≈ 63.3 µM)	50 (≈ 127 µM)	25 (≈ 63.3 µM)	25 (≈ 63.3 µM)	diameter of the inhibition zone (DIZ) [14]: 19.8 mm; diameter of the inhibition zone (DIZ) [15]: 18.3 mm; diameter of the inhibition zone (DIZ) [16]: 22.3 mm; diameter of the inhibition zone (DIZ) [17]: 20.2 mm
